Tests used:
[1] = biological target: T1, GDP loaded KRAS4b(1-169) H95C/C118S mutant (Homo sapiens, UniProt P01116, C118S/H95C); experiment: MALDI-TOF percentage labeling of C95, GDP-loaded protein; format: binding; details: for level of covalent labeling to C95 (percent of labeling), GDP, 3 h: 3 h incubation; for level of covalent labeling to C95 (percent of labeling), GDP, 6 h: 6 h incubation; for level of covalent labeling to C95 (percent of labeling), GDP, 24 h: 24 h incubation
T1 construct: loaded KRAS4b(1-169) H95C/C118S mutant
Description: (§1) Table 1 is a table summarizing levels of covalent labeling to C95 as analyzed by MALDI-TOF MS for a series of synthesized compounds. […] Both species, GDP or nonhydrolyzable analogue of GTP—GppNHp-loaded KRAS4b H95C/C118S, were then reacted with a panel of epoxides and analyzed by MALDI-TOF MS to assess level of covalent modification to C95 after 3 h, 6 h, or 24 h of incubation with the protein. All R isomers show enhanced activity compared to S isomers.
(§2) Example 18: Percentage Labeling Determination for Compounds Targeting KRAS4b Residue 95 by Matrix Assisted Laser Desorption Ionization-Time of Flight Mass Spectrometry (MALDI-TOF)
(§3) The assay uses four tool proteins: • Guanosine diphosphate (GDP) loaded KRAS4b(1-169) H95C/C118S mutant • 5′-Guanylyl imidodiphosphate (GppNHp) loaded KRAS4b(1-169) H95C/C118S mutant • GDP loaded KRAS4b(1-169) C118S mutant • GppNHp loaded KRAS4b(1-169) C118S mutant
(§4) 20 μM Solution of protein in 20 mM HEPES, 150 mM NaCl, 1 mM MgCl2, pH 7.3 buffer was prepared freshly before assay. 20 μl Aliquots of protein were dispensed on 384 well polypropylene plate, then tested compounds (0.8 μl, 10 mM in DMSO) were added to appropriate wells. For each reaction/assay three blank and three control samples were prepared by mixing 20 μl of protein solution with 0.8 μl DMSO or 10 mM standards (compounds 994566 and FB9). The wells content was carefully mixed by aspiration, then plate was sealed by adhesive cover, centrifuged at 2000 g for 1 minute and kept in dark at room temperature for 3, 6 (or 8) and 24 h.
(§5) Before each assay MALDI target (Bruker MPT 384 ground steel BC) was pre-treated by pipetting on each spot 1 μl of saturated sinapinic acid in acetonitrile (ACN).
(§6) After 24 h reaction, 2 μl of reaction mixtures were pipetted out into 20 μl MALDI matrix solution (saturated solution of sinapinic acid in 1:1 ACN:water solution containing 0.75% trifluoroacetic acid (TFA)) deposited on 384 well polypropylene plate. Resulting solution was mixed by aspiration, centrifuged at 2000 g for 1 minute, then 2 μl aliquots were dispensed on pre-treated MALDI target using Beckman Coulter Biomek FX^P 96/Span-8 Laboratory Automation Workstation. Finally, the MALDI target was dried under mild vacuum to produce spots with fine crystalline structure.
MALDI-TOF measurements were performed on Bruker Daltonics ultraflex III TOF-TOF mass spectrometer using linear mode and mass range from 5 to 45 kDa. Detector gain was set to ×9 (1734 V), sample rate to 1 GS/s, smart beam parameter set: 3_medium was used, and the laser frequency was 66.7 Hz. Spectra were automatically collected using custom AutoXecute method. Laser power was auto-adjusted using fuzzy control. The peak selection range was set to be between 19000 and 20200 Da. Peak evaluation uses half width parameter set to be smaller than 30 Da. Fuzzy control used Proteins/Oligonucleotides protocol with minimum half width ⅙ times above threshold. Up to 1500 shots were collected in 500 shot steps. Dynamic termination was implemented to finish data collection when peak intensity was reaching value of 1200 [a.u.].
Spectra were smoothed by SavitzkyGolay algorithm using 5 m/z width and three cycles. Centroid peak detection algorithm was used with signal to noise threshold set to 4, relative intensity threshold 2%, minimum intensity threshold 20 [a.u.], peak width 10 m/z and TopHat baseline subtraction. Peak intensity and area under the peak were evaluated and recorded for all peaks between 19248 Da and 20500 Da for H95/C118 mutant and 19285 Da and 20500 Da for C118 mutant respectively.
Percent of labeling was calculated using followed equation:
[formula] Similar results were obtained when peak area instead of peak height was used for calculations, however peak height method produced more reliable data in case of poor quality spectra.

[2] = biological target: T2, GppNHp loaded KRAS4b(1-169) H95C/C118S mutant (Homo sapiens, UniProt P01116, C118S/H95C); experiment: MALDI-TOF percentage labeling of C95, GppNHp-loaded protein; format: binding; details: for level of covalent labeling to C95 (percent of labeling), GppNHp, 3 h: 3 h incubation; for level of covalent labeling to C95 (percent of labeling), GppNHp, 6 h: 6 h incubation; for level of covalent labeling to C95 (percent of labeling), GppNHp, 24 h: 24 h incubation
T2 construct: loaded KRAS4b(1-169) H95C/C118S mutant
Description: as §1
150 to 300 μM solution of GDP loaded protein in KRAS buffer was prepared (20 mM HEPES, 150 mM NaCl, 1 mM MgCl2, 0.05 mM TCEP, pH 7.3). To this was added vigorously 1500×molar excess of 1 M ammonium sulfate in KRAS buffer, and the combination mixed gently by inverting tube. Next was prepared 250 mM solution of GppNHp (150 molar excess of GppNHp to protein; keep it on ice). To the protein was pipetted 10% of prepared GppNHp solution, then suspension of alkaline phosphatase from calf intestine on agarose was added (Sigma-Aldrich, P0726) to have 2 units of enzyme per each mg of protein. The reaction mixture was incubated at room temperature, rotating end-over for 1 h 30 min. The alkaline phosphatase was removed on agarose beads by filtering solution to a new vial using Millex-GP syringe filter. Remaining solution of GppNHp was added and incubated for additional 45 min. At the end of the exchange the protein was filtered again, placed on ice, and purified on NGC medium-pressure chromatography system (Bio-Rad). Five in-lane connected desalting columns (5×GE Healthcare HiTrap Desalting columns 5 ml, 17-1408-01) were used with isocratic elution of KRAS buffer at 4 ml/min. The protein elution was monitored at 280 nm. The concentration of final protein was evaluated by NanoDrop 2000 spectrophotometer (Thermo Fisher) using molar attenuation coefficient ε=19685 l·mol^−1·cm^−1. The quality of the protein was confirmed by MALDI and the exchange rate was assessed by HPLC based assay.
as §2, §3, §4, §5, §6
MALDI-TOF measurements were performed on Bruker Daltonics ultraflex III TOF-TOF mass spectrometer using linear mode and mass range from 5 to 45 kDa. […]

Row | level of covalent labeling to C95 (percent of labeling), GDP, 3 h [1] | level of covalent labeling to C95 (percent of labeling), GDP, 6 h [1] | level of covalent labeling to C95 (percent of labeling), GDP, 24 h [1] | level of covalent labeling to C95 (percent of labeling), GppNHp, 3 h [2] | level of covalent labeling to C95 (percent of labeling), GppNHp, 6 h [2] | level of covalent labeling to C95 (percent of labeling), GppNHp, 24 h [2] | SMILES
1 | 3% | 9% | 38% | 0% | 3% | 13% | Cn1nc(C(=O)NCc2cn(C[C@@H]3CO3)nn2)c2ccccc21 [drawing 514]
2 | 0% | 5% | 31% | 0% | 2% | 11% | O=C(NCc1cn(C[C@H]2CO2)nn1)c1c[nH]c2ccccc12
3 | 0% | 0% | 0% | 0% | 0% | 0% | Cn1nc(C(=O)NCc2cn(C[C@H]3CO3)nn2)c2ccccc21
4 | 7% | 18% | 72% | 2% | 4% | 25% | O=C(NCc1cn(C[C@@H]2CO2)nn1)c1c[nH]c2ccccc12

More lines, now with the values behind:

Row | SMILES | level of covalent labeling to C95 (percent of labeling), GDP, 3 h [1] | level of covalent labeling to C95 (percent of labeling), GDP, 6 h [1] | level of covalent labeling to C95 (percent of labeling), GDP, 24 h [1] | level of covalent labeling to C95 (percent of labeling), GppNHp, 3 h [2] | level of covalent labeling to C95 (percent of labeling), GppNHp, 6 h [2] | level of covalent labeling to C95 (percent of labeling), GppNHp, 24 h [2]
5 | CC(C)Cc1ccc(C(C)C(=O)NCc2cn(C[C@@H]3CO3)nn2)cc1 (stereo partly drawn) | 36% | 73% | 98% | 0% | 2% | 17%
6 | Cn1nc(C(=O)NCc2cn(C[C@H]3CO3)nn2)c2cc(Br)ccc21 | 3% | 10% | 49% | 0% | 2% | 10%
7 | Cc1ccc(S(=O)(=O)c2cn(CC3OC3(C)C)nn2)cc1 (stereo not drawn) | 0% | 0% | 0% | 0% | 0% | 0%
8 | Cn1cc(C(=O)NCc2cn(C[C@@H]3CO3)nn2)c2cc(Br)ccc21 | 19% | 42% | 91% | 3% | 4% | 22%
9 | COc1ccc(Cl)cc1C(=O)N[C@H]1COC1=O | 87% | 91% | 89% | 76% | 81% | 78%
10 | CC(C)C[C@H](NC(=O)c1cn(C)c2ccc(Br)cc12)C(=O)[C@@]1(C)CO1 | 0% | 0% | 0% | 0% | 0% | 0%
11 | CC(C)C[C@H](NC(=O)c1cn(C)c2ccccc12)C(=O)[C@@]1(C)CO1 | 0% | 0% | 0% | 0% | 0% | 0%
12 | CC(=O)Oc1ccccc1C(=O)NCc1cn(C[C@@H]2CO2)nn1 | 5% | 12% | 45% | 2% | 3% | 14%
13 | Cn1nc(C(=O)NCc2cn(C[C@@H]3CO3)nn2)c2cc(Br)ccc21 | 23% | 52% | 96% | 0% | 4% | 19%
14 | COc1ccc(Cl)cc1C(=O)N1CCCC(C(=O)N[C@@H](CC(C)C)C(=O)[C@@]2(C)CO2)C1 (stereo partly drawn) | 0% | 0% | 0% | 0% | 0% | 0%

Source: patent US11358940B2, “K-Ras modulators” (THE REGENTS OF THE UNIVERSITY OF CALIFORNIA, priority 2017, dated 2022)
